Source: PubChem BioAssay (NCI)
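Briefly, cells in 96-well plates were exposed to five compound concentrations for 48 h, and endpoints were estimated by linear interpolation. At the TGI there is no net growth.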

How the values were obtained:
Assay in all cases: DTP human tumour cell line panel, 48 h
A549 NSCLC = tested on: A549 NSCLC
ACHN renal = tested on: ACHN renal
COLO 205 colon = tested on: COLO 205 colon
HCT-116 colon = tested on: HCT-116 colon
HL-60(TB) leukemia = tested on: HL-60(TB) leukemia
HOP-62 NSCLC = tested on: HOP-62 NSCLC
K-562 leukemia = tested on: K-562 leukemia
NCI-H23 lung = tested on: NCI-H23 lung
OVCAR-4 ovarian = tested on: OVCAR-4 ovarian
OVCAR-5 ovarian = tested on: OVCAR-5 ovarian
OVCAR-8 ovarian = tested on: OVCAR-8 ovarian
SNB-19 CNS = tested on: SNB-19 CNS
SNB-75 CNS = tested on: SNB-75 CNS
SR leukemia = tested on: SR leukemia
U251 CNS = tested on: U251 CNS
UACC-62 melanoma = tested on: UACC-62 melanoma
NCI-H226 lung = tested on: NCI-H226 lung
RPMI-8226 leukemia = tested on: RPMI-8226 leukemia
CAKI-1 renal = tested on: CAKI-1 renal

| SMILES | TGI (A549 NSCLC) | TGI (ACHN renal) | TGI (COLO 205 colon) | TGI (HCT-116 colon) | TGI (HL-60(TB) leukemia) | TGI (HOP-62 NSCLC) | TGI (K-562 leukemia) | TGI (NCI-H23 lung) | TGI (OVCAR-4 ovarian) | TGI (OVCAR-5 ovarian) | TGI (OVCAR-8 ovarian) | TGI (SNB-19 CNS) | TGI (SNB-75 CNS) | TGI (SR leukemia) | TGI (U251 CNS) | TGI (UACC-62 melanoma) | TGI (NCI-H226 lung) | TGI (RPMI-8226 leukemia) | TGI (CAKI-1 renal) |
| --- | --- | --- | --- | --- | --- | --- | --- | --- | --- | --- | --- | --- | --- | --- | --- | --- | --- | --- | --- |
| CCOC(=O)c1cnc2c(ccc3[nH]cccc32)c1=O | > 100 µM | > 100 µM | > 100 µM | > 100 µM | > 100 µM | > 100 µM | > 100 µM | > 100 µM | > 100 µM | > 100 µM | > 100 µM | > 100 µM | > 100 µM | > 100 µM | > 100 µM | > 100 µM | – | – | – |
| CCOC(=O)c1nc2ccccc2nc1Oc1ccc(C#N)cc1 | > 100 µM | > 100 µM | > 100 µM | > 100 µM | > 100 µM | > 100 µM | > 100 µM | – | > 100 µM | > 100 µM | > 100 µM | > 100 µM | – | – | > 100 µM | > 100 µM | > 100 µM | > 100 µM | – |
| O=C1NC(=S)NC(=O)C1=Cc1ccc(-c2ccccc2)cc1 | > 100 µM | > 100 µM | > 100 µM | > 100 µM | – | > 100 µM | > 100 µM | > 100 µM | > 100 µM | > 100 µM | > 100 µM | > 100 µM | – | – | > 100 µM | > 100 µM | > 100 µM | > 100 µM | > 100 µM |
| C#CCNC(=O)NCCCCC(NC(C)=O)C(=O)NCc1ccccc1 (configuration not stated) | > 100 µM | > 100 µM | > 100 µM | > 100 µM | – | > 100 µM | > 100 µM | > 100 µM | > 100 µM | > 100 µM | > 100 µM | > 100 µM | > 100 µM | > 100 µM | > 100 µM | > 100 µM | > 100 µM | > 100 µM | > 100 µM |
| CCCCCCSCC/C(C)=N\OC | > 100 µM | > 100 µM | > 100 µM | > 100 µM | > 100 µM | > 100 µM | > 100 µM | > 100 µM | > 100 µM | > 100 µM | > 100 µM | > 100 µM | > 100 µM | – | > 100 µM | > 100 µM | > 100 µM | > 100 µM | > 100 µM |
| CCO/C(O)=C(/C(=N)N1CCCC1)C(=O)Nc1cccc(Cl)c1 | > 100 µM | > 100 µM | > 100 µM | > 100 µM | > 100 µM | > 100 µM | > 100 µM | > 100 µM | > 100 µM | > 100 µM | > 100 µM | > 100 µM | > 100 µM | – | > 100 µM | > 100 µM | > 100 µM | > 100 µM | > 100 µM |
| C[C@@H]1CCC2C(C)(C)C(/C=C\C=O)C3(C)OC213 (some centres not stated) | > 100 µM | > 100 µM | 55.4 µM | 98.2 µM | – | > 100 µM | > 100 µM | > 100 µM | > 100 µM | 69.6 µM | 44.5 µM | > 100 µM | > 100 µM | – | > 100 µM | > 100 µM | – | 84.5 µM | > 100 µM |
